Measured values reported in patent US20250304576A1 (Cancer Research Technology Limited, priority 2022, published 2025).

Columns and labels:
Recombinant IKKα = target: T1, Recombinant IKKα (Homo sapiens, UniProt O15111); assay: DELFIA IKKα kinase assay (apparent Ki, Cheng-Prusoff); type: biochemical
T1 construct: purchased Millipore, Dundee, UK
T1 sequence (O15111 1-745): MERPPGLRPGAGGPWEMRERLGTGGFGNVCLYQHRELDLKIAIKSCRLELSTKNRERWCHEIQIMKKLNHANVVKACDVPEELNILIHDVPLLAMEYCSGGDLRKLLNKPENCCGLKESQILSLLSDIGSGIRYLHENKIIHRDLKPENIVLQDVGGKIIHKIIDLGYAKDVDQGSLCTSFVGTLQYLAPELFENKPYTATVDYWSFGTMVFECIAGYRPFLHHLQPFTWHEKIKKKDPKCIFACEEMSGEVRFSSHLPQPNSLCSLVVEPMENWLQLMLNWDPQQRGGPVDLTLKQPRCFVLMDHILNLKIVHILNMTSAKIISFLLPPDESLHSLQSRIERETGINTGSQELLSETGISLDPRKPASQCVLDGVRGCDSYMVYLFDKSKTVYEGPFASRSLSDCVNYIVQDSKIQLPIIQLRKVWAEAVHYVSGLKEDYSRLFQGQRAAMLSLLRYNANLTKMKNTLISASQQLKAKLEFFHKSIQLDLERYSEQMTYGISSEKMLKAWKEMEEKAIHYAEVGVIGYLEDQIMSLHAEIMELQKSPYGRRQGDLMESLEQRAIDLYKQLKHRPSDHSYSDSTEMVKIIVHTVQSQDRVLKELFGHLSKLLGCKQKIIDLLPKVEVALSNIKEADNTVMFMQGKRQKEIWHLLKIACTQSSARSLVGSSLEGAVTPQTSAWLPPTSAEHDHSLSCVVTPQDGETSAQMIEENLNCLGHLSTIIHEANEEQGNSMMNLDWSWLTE
Outline: (§1)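 Recombinant IKKα or IKKβ (37 nM) with 0.375 μM biotinylated IκB-α (Ser32) peptide and 40 μM ATP in 40 mM Tris-HCl pH 7.5, 20 mM MgCl2, 60 min at 30° C. Phospho-substrate captured on streptavidin and detected by anti-phospho-IκB-α plus europium anti-mouse IgG time-resolved fluorescence; apparent Ki via Cheng-Prusoff.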

Recombinant IKKβ = target: T2, Recombinant IKKβ (Homo sapiens, UniProt O14920); assay: DELFIA IKKβ kinase assay (apparent Ki, Cheng-Prusoff); type: biochemical
T2 construct: purchased Millipore, Dundee, UK
T2 sequence (O14920 1-756): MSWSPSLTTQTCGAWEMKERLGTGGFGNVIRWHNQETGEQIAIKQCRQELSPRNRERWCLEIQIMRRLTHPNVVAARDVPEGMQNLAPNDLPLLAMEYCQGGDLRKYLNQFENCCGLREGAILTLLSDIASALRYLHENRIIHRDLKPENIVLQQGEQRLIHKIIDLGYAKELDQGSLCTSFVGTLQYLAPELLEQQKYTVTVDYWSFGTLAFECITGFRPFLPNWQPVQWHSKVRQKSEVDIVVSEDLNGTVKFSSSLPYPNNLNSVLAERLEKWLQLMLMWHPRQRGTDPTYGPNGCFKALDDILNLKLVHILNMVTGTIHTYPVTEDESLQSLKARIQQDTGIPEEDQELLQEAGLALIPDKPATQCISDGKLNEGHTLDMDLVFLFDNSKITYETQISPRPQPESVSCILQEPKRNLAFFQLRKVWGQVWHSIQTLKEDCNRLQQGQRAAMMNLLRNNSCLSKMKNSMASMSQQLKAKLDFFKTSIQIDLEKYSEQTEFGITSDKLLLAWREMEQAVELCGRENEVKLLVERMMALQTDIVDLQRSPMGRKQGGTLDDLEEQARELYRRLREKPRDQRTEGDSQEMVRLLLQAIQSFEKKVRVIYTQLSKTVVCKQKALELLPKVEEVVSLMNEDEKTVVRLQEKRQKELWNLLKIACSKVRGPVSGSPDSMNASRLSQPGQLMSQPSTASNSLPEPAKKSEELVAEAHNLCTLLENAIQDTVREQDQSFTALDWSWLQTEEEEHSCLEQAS
Outline: as §1

[1] = DELFIA assay (first line of an example)
[2] = non-italicised figure: DELFIA assay

| SMILES | Ki (Recombinant IKKα; [1]) | Ki (Recombinant IKKβ; [1]) | Ki (Recombinant IKKα; [2]) | Ki (Recombinant IKKβ; [2]) |
| --- | --- | --- | --- | --- |
| CN(C)CCNCc1cc2c(-c3ccc4[nH]nc(N)c4c3)ccnc2[nH]1 [Example 255, N^1-((4-(3-Amino-1H-indazol-5-yl)-1H-pyrrolo[2,3-b]pyridin-2-yl)methyl)-N2,N2-dimethylethane-1,2-diamine] | 30 nM | 1630 nM |  |  |
| CC(C)(C)C#Cc1cc(-c2ccnc3[nH]c(C(F)(F)F)nc23)cc2c(N)n[nH]c12 [Example 308, 7-(3,3-dimethylbut-1-yn-1-yl)-5-(2-(trifluoromethyl)-3H-imidazo[4,5-b]pyridin-7-yl)-1H-indazol-3-amine] | 223 nM | > 3330 nM |  |  |
| CC(C)(C)c1cc2c(-c3ccc4[nH]nc(N)c4c3)ccnc2[nH]1 [Example 9, 2-(Tert-butyl)-4-(3-amino-1H-indazol-5-yl)-7-azaindole] |  |  | 19 nM | 109 nM |
| CNCCCNc1cc(-c2ccc3[nH]nc(N)c3c2)ccn1 [Example 32, N^1-(4-(3-Amino-1H-indazol-5-yl)pyridin-2-yl)-N^3-methylpropane-1,3-diamine] |  |  | 340 nM | > 10000 nM |
| CC(C)(C)C#Cc1cc(-c2ccnc(NC(=O)C3CCCC3)c2)cc2c(N)n[nH]c12 [Example 173, N-(4-(3-Amino-7-(3,3-dimethylbut-1-yn-1-yl)-1H-indazol-5-yl)pyridin-2-yl)cyclopentanecarboxamide] |  |  | 298 nM | 23800 nM |
| Nc1n[nH]c2ccc(-c3ccnc4[nH]c(C(=O)NCCN5CCCCC5)cc34)cc12 [Example 244, 4-(3-Amino-1H-indazol-5-yl)-N-(2-(piperidin-1-yl)ethyl)-1H-pyrrolo[2,3-b]pyridine-2-carboxamide] | 8 nM | 109 nM |  |  |
| COCCNc1cc(-c2cc(C#CC(C)(C)C)c3[nH]nc(N)c3c2)ccn1 [Example 162, 7-(3,3-dimethylbut-1-yn-1-yl)-5-(2-((2-methoxyethyl)amino)pyridin-4-yl)-1H-indazol-3-amine] |  |  | 35 nM | 1110 nM |
| CC(C)C(=O)Nc1cc(-c2cc(C#CC(C)(C)C)c3[nH]nc(N)c3c2)ccn1 [Example 168, N-(4-(3-Amino-7-(3,3-dimethylbut-1-yn-1-yl)-1H-indazol-5-yl)pyridin-2-yl)isobutyramide] |  |  | 273 nM | 2580 nM |
| Nc1n[nH]c2ccc(-c3ccnc(NCCCCCO)c3)cc12 [Example 23] |  |  | 33 nM | 335 nM |
| COC(=O)Nc1cc(-c2cc(CCC(C)(C)C)c3[nH]nc(N)c3c2)ccn1 [Example 293, Methyl (4-(3-amino-7-(3,3-dimethylbutyl)-1H-indazol-5-yl)pyridin-2-yl)carbamate] | 19 nM | 278 nM |  |  |
| CC(C)(C)C#Cc1cc(-c2ccnc(NC#N)c2)cc2c(N)n[nH]c12 [Example 309, N-(4-(3-Amino-7-(3,3-dimethylbut-1-yn-1-yl)-1H-indazol-5-yl)pyridin-2-yl)cyanamide] | 421 nM | 8660 nM |  |  |
| Nc1n[nH]c2ccc(-c3ccnc4[nH]c(CCCNC5CCCCC5)cc34)cc12 [Example 270, 5-(2-(3-(Cyclohexylamino)propyl)-1H-pyrrolo[2,3-b]pyridin-4-yl)-1H-indazol-3-amine] | 4 nM | 65 nM |  |  |
| Nc1n[nH]c2ccc(-c3ccnc(NCCCO)n3)cc12 [Example 28, 3-((4-(3-Amino-1H-indazol-5-yl)pyrimidin-2-yl)amino)propan-1-ol] |  |  | 65 nM | 460 nM |
| CC(C)(C)C#Cc1cc(-c2ccnc(NC3CCC3)c2)cc2c(N)n[nH]c12 [Example 154, 5-(2-(Cyclobutylamino)pyridin-4-yl)-7-(3,3-dimethylbut-1-yn-1-yl)-1H-indazol-3-amine] |  |  | 120 nM | 1690 nM |
| Nc1n[nH]c2c(C#CCCCCOc3ccccc3)cc(-c3ccnc4[nH]ccc34)cc12 [Example 217, 7-(6-Phenoxyhex-1-yn-1-yl)-5-(1H-pyrrolo[2,3-b]pyridin-4-yl)-1H-indazol-3-amine] | 243 nM | 1260 nM |  |  |
| CC(C)N(CCNC(=O)c1cc2c(-c3ccc4[nH]nc(N)c4c3)ccnc2[nH]1)C(C)C [Example 246, 4-(3-Amino-1H-indazol-5-yl)-N-(2-(diisopropylamino)ethyl)-1H-pyrrolo[2,3-b]pyridine-2-carboxamide] | 9 nM | 104 nM |  |  |
| CC(C)(C)C#Cc1cc(-c2ccnc(NCCO)c2)cc2c(N)n[nH]c12 [Example 160, 2-((4-(3-Amino-7-(3,3-dimethylbut-1-yn-1-yl)-1H-indazol-5-yl)pyridin-2-yl)amino)ethan-1-ol] |  |  | 8 nM | 1340 nM |
| Nc1nccc(-c2ccc3[nH]nc(N)c3c2)c1C#CCCN1CCOCC1 [Example 94, 5-(2-Amino-3-(4-morpholinobut-1-yn-1-yl)pyridin-4-yl)-1H-indazol-3-amine] |  |  | 38 nM | 922 nM |
| Nc1n[nH]c2ccc(-c3ccnc(NC(=O)NC4CCCCC4)c3)cc12 [Example 40, 1-(4-(3-Amino-1H-indazol-5-yl)pyridin-2-yl)-3-cyclohexylurea] |  |  | 228 nM | > 10000 nM |
| CC(C)(C)C#Cc1cc(-c2ccnc3[nH]c(C4CCC4)nc23)cc2c(N)n[nH]c12 [Example 301, 5-(2-Cyclobutyl-3H-imidazo[4,5-b]pyridin-7-yl)-7-(3,3-dimethylbut-1-yn-1-yl)-1H-indazol-3-amine] | 82 nM | 1240 nM |  |  |

Second part, the molecule after the results:

| Ki (Recombinant IKKα; [1]) | Ki (Recombinant IKKβ; [1]) | Ki (Recombinant IKKα; [2]) | Ki (Recombinant IKKβ; [2]) | SMILES |
| --- | --- | --- | --- | --- |
|  |  | 2 nM | 33 nM | Cc1cc2c(-c3ccc4[nH]nc(N)c4c3)ccnc2[nH]1 [Example 8, 5-(2-Methyl-1H-pyrrolo[2,3-b]pyridin-4-yl)-1H-indazol-3-amine] |
|  |  | 27 nM | 1480 nM | Nc1cc(-c2cc(-c3ccc(S(N)(=O)=O)cc3)c3[nH]nc(N)c3c2)ccn1 [Example 121, 4-(3-Amino-5-(2-aminopyridin-4-yl)-1H-indazol-7-yl)benzenesulfonamide] |
|  |  | 15 nM | 318 nM | CC(C)(C)CCc1cc(-c2ccnc(N)c2)cc2c(N)n[nH]c12 [Example 144, 5-(2-Aminopyridin-4-yl)-7-(3,3-dimethylbutyl)-1H-indazol-3-amine] |
| 38 nM | 429 nM |  |  | COC(=O)Nc1cc(-c2cc(-c3cccc(CN4CCOCC4)c3)c3[nH]nc(N)c3c2)ccn1 [Example 334, Methyl (4-(3-amino-7-(3-(morpholinomethyl)phenyl)-1H-indazol-5-yl)pyridin-2-yl)carbamate] |
| 9.8 nM | 83 nM |  |  | COC(=O)Nc1cc(-c2cc(-c3ccc(O)cc3)c3[nH]nc(N)c3c2)ccn1 [Example 323, Methyl (4-(3-Amino-7-(4-hydroxyphenyl)-1H-indazol-5-yl)pyridin-2-yl)carbamate] |
| 911 nM | ≥ 10000 nM |  |  | CC(C)(C)C#Cc1cc(-c2ccnc(Nc3nccs3)c2)cc2c(N)n[nH]c12 [Example 314, N-(4-(3-Amino-7-(3,3-dimethylbut-1-yn-1-yl)-1H-indazol-5-yl)pyridin-2-yl)thiazol-2-amine] |
|  |  | 26 nM | 137 nM | C#Cc1cc(-c2ccnc3[nH]ccc23)cc2c(N)n[nH]c12 [Example 6, 7-Ethynyl-5-(1H-pyrrolo[2,3-b]pyridin-4-yl)-1H-indazol-3-amine] |
|  |  | 4 nM | 93 nM | Nc1n[nH]c2c(Cl)cc(-c3ccnc4[nH]ccc34)cc12 [Example 4, 7-Chloro-5-(1H-pyrrolo[2,3-b]pyridin-4-yl)-1H-indazol-3-amine] |
|  |  | 76 nM | 159 nM | Nc1n[nH]c2ccc(-c3ccnc(NC(=O)C4CC4)c3)cc12 [Example 33, N-[4-(3-Amino-1H-indazol-5-yl)pyridin-2-yl]cyclopropanecarboxamide] |
